Measured values: ChEMBL document CHEMBL1201862, “PubChem BioAssay data set” (2004)
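How tested: cells in 96-well plates exposed to compound for 48 hours at five concentrations. At the GI50, growth is halved.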 The source made the active and inactive calls. No stated cut-off is given here; in the data, active = GI50 up to about 1.1 µM and inactive = higher.

Assays:
Assay in all cases: NCI-60 cell line screen, 48 h
786-0 = test system: 786-0
A549 = test system: A549
COLO 205 = test system: COLO 205
DMS-273 = test system: DMS-273
HCC 2998 = test system: HCC 2998
K562 = test system: K562
KM12 = test system: KM12
M14 = test system: M14
NCI-H226 = test system: NCI-H226
NCI-H522 = test system: NCI-H522
OVCAR-4 = test system: OVCAR-4
OVCAR-8 = test system: OVCAR-8
RXF 393 = test system: RXF 393
SK-MEL-28 = test system: SK-MEL-28
SW-620 = test system: SW-620
UO-31 = test system: UO-31
HOP-92 = test system: HOP-92
DU-145 = test system: DU-145
PC-3 = test system: PC-3
SR = test system: SR

Measured: GI50

O=C1c2ccccc2C2(O)Nc3c(ccc4ccccc34)C12O (stereo unspecified)
inactive: 786-0 > 100 µM | A549 > 100 µM | COLO 205 > 100 µM | DMS-273 > 100 µM | HCC 2998 > 100 µM | K562 61.4 µM | KM12 87.1 µM | M14 > 100 µM | NCI-H226 > 100 µM | NCI-H522 95.5 µM | OVCAR-4 > 100 µM | OVCAR-8 > 100 µM | RXF 393 > 100 µM | SK-MEL-28 > 100 µM | SW-620 > 100 µM | UO-31 95.5 µM

O=C1OC(/C=C/c2ccccc2)C(=O)C1=O (stereo unspecified)
inactive: 786-0 > 100 µM | A549 > 100 µM | COLO 205 > 100 µM | DMS-273 > 100 µM | HCC 2998 > 100 µM | HOP-92 > 100 µM | K562 > 100 µM | KM12 > 100 µM | M14 > 100 µM | NCI-H226 > 100 µM | NCI-H522 > 100 µM | OVCAR-4 > 100 µM | RXF 393 > 100 µM | SK-MEL-28 > 100 µM | SW-620 > 100 µM | UO-31 > 100 µM

Cn1nc(-c2ccccc2)c2c(/C=C/c3ccc(F)cc3)onc2c1=O
inactive: 786-0 11.1 µM | A549 13.6 µM | COLO 205 > 100 µM | DMS-273 > 100 µM | HOP-92 2.72 µM | K562 17.3 µM | M14 > 100 µM | NCI-H522 17.5 µM | OVCAR-8 38.1 µM | RXF 393 23.3 µM | SK-MEL-28 > 100 µM | SW-620 > 100 µM | UO-31 29.2 µM

CCn1cc(/C=C/C(C)c2cn(CC)c(=O)[nH]c2=O)c(=O)[nH]c1=O (stereo unspecified)
inactive: 786-0 > 100 µM | A549 > 100 µM | COLO 205 > 100 µM | DMS-273 > 100 µM | HCC 2998 > 100 µM | HOP-92 11.3 µM | K562 > 100 µM | KM12 > 100 µM | M14 > 100 µM | NCI-H522 > 100 µM | OVCAR-4 > 100 µM | OVCAR-8 > 100 µM | RXF 393 > 100 µM | SK-MEL-28 > 100 µM | SW-620 > 100 µM | UO-31 > 100 µM

C=CCN(N=O)C(=O)ON1C(=O)CCC1=O
inactive: 786-0 > 100 µM | A549 > 100 µM | COLO 205 > 100 µM | DMS-273 > 100 µM | HCC 2998 > 100 µM | HOP-92 > 100 µM | K562 > 100 µM | KM12 > 100 µM | M14 > 100 µM | NCI-H522 64.7 µM | OVCAR-4 > 100 µM | OVCAR-8 > 100 µM | RXF 393 > 100 µM | SK-MEL-28 > 100 µM | SW-620 > 100 µM | UO-31 > 100 µM

COc1ccc(C2CCc3cc4c(cc3/C2=N/OC(C)=O)OCO4)cc1OC (stereo unspecified)
inactive: 786-0 32.5 µM | A549 18.3 µM | COLO 205 22.5 µM | DMS-273 24.8 µM | HOP-92 23.1 µM | K562 20.2 µM | KM12 20.8 µM | M14 20.6 µM | NCI-H226 12.6 µM | NCI-H522 12 µM | OVCAR-4 27.1 µM | OVCAR-8 34.4 µM | RXF 393 14 µM | SK-MEL-28 18.4 µM | SW-620 27.4 µM | UO-31 17.2 µM

C[C@]12CCC(=O)C=C1CC[C@@H]1C2CC[C@]2(C)Nc3c(ncn3-c3ccc(F)cc3)CC12 (stereo partly specified)
inactive: 786-0 31 µM | A549 21.9 µM | COLO 205 15.7 µM | DU-145 23.7 µM | HCC 2998 20.2 µM | HOP-92 33.2 µM | K562 5.82 µM | KM12 17.2 µM | M14 23.8 µM | NCI-H226 49.2 µM | NCI-H522 15 µM | OVCAR-4 28.2 µM | OVCAR-8 35.2 µM | PC-3 12 µM | RXF 393 5.56 µM | SK-MEL-28 29.3 µM | SR 3.34 µM | SW-620 31.6 µM | UO-31 27 µM

CCC(C)c1cccc(C)c1NC(=O)C(=O)Cc1nc2ccccc2s1 (stereo unspecified)
inactive: 786-0 > 100 µM | A549 > 100 µM | COLO 205 > 100 µM | DMS-273 > 100 µM | HCC 2998 > 100 µM | HOP-92 > 100 µM | K562 > 100 µM | KM12 > 100 µM | M14 > 100 µM | NCI-H522 > 100 µM | OVCAR-4 > 100 µM | OVCAR-8 > 100 µM | RXF 393 > 100 µM | SK-MEL-28 > 100 µM | SW-620 > 100 µM | UO-31 > 100 µM

O=C(NCCOCCO)c1ccc(O)cc1
inactive: 786-0 > 100 µM | A549 > 100 µM | COLO 205 > 100 µM | DMS-273 > 100 µM | HOP-92 > 100 µM | K562 > 100 µM | M14 > 100 µM | NCI-H522 > 100 µM | OVCAR-8 > 100 µM | RXF 393 > 100 µM | SK-MEL-28 > 100 µM | SW-620 > 100 µM | UO-31 > 100 µM
